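Values below derive from 48-hour exposures of cells grown in 96-well plates, with endpoints linearly interpolated between the two concentrations bracketing the appropriate inhibition level. GI50 is the concentration that inhibits growth by half.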 The source made the active and inactive calls. Rule as the data show it: active = GI50 up to about 1.1 µM and inactive = higher.
Legend:
Experiment in all cases: NCI anticancer screen, dose series, 48 h
NCI-H226 = tested on: NCI-H226
U-251 = tested on: U-251
COLO 205 = tested on: COLO 205
SF-295 = tested on: SF-295
OVCAR-5 = tested on: OVCAR-5
SK-MEL-28 = tested on: SK-MEL-28
LOX IMVI = tested on: LOX IMVI
SF-268 = tested on: SF-268
TK-10 = tested on: TK-10
SN12C = tested on: SN12C
A498 = tested on: A498
MCF7 = tested on: MCF7
CCRF-CEM = tested on: CCRF-CEM
M14 = tested on: M14
RPMI-8226 = tested on: RPMI-8226
MDA-MB-435 = tested on: MDA-MB-435
SR = tested on: SR
RXF 393 = tested on: RXF 393
EKVX = tested on: EKVX
MDA-MB-231 = tested on: MDA-MB-231

Measured: GI50

Cc1ccc(C2=C(Cl)C(=O)C(c3ccc(C)cc3)=C(Cl)C2=O)cc1
inactive: NCI-H226 > 100 µM | U-251 > 100 µM | COLO 205 > 100 µM | SF-295 > 100 µM | OVCAR-5 > 100 µM | SK-MEL-28 > 100 µM | LOX IMVI > 100 µM | SF-268 > 100 µM | TK-10 > 100 µM | SN12C > 100 µM | A498 > 100 µM | MCF7 > 100 µM | CCRF-CEM 83.4 µM | M14 > 100 µM | RPMI-8226 > 100 µM | MDA-MB-435 > 100 µM | SR > 100 µM | RXF 393 > 100 µM | EKVX > 100 µM

CCc1cccc(C(C)C)c1NC(=O)C(=O)C(C(=O)C(=O)OC)c1nc2ccccc2nc1O (stereo not given)
inactive: NCI-H226 > 100 µM | U-251 > 100 µM | COLO 205 > 100 µM | SF-295 > 100 µM | OVCAR-5 > 100 µM | SK-MEL-28 > 100 µM | LOX IMVI > 100 µM | SF-268 > 100 µM | TK-10 > 100 µM | SN12C > 100 µM | A498 > 100 µM | CCRF-CEM > 100 µM | M14 > 100 µM | RPMI-8226 > 100 µM | SR > 100 µM | RXF 393 > 100 µM | EKVX 44.7 µM

CN(C)CCCNC(=O)CNC(=O)c1cc(NC(=O)c2cc(NC(=O)c3cc(NC(=O)CCNC(=O)c4cc(NC(=O)c5cc(NC(=O)c6nccn6C)cn5C)cn4C)cn3C)cn2C)cn1C
inactive: NCI-H226 > 100 µM | U-251 > 100 µM | COLO 205 > 100 µM | SF-295 > 100 µM | OVCAR-5 > 100 µM | SK-MEL-28 > 100 µM | LOX IMVI > 100 µM | SF-268 > 100 µM | TK-10 > 100 µM | SN12C > 100 µM | A498 > 100 µM | MCF7 > 100 µM | CCRF-CEM 24.5 µM | M14 > 100 µM | RPMI-8226 > 100 µM | MDA-MB-435 > 100 µM | MDA-MB-231 > 100 µM | EKVX > 100 µM

CCCC[C@H]1CCN2C[C@@H](O)[C@@H](O)[C@H]2[C@@H]1O
inactive: NCI-H226 > 100 µM | U-251 > 100 µM | COLO 205 > 100 µM | SF-295 > 100 µM | OVCAR-5 > 100 µM | SK-MEL-28 > 100 µM | LOX IMVI > 100 µM | SF-268 > 100 µM | TK-10 > 100 µM | SN12C > 100 µM | A498 > 100 µM | MCF7 > 100 µM | CCRF-CEM > 100 µM | M14 > 100 µM | RPMI-8226 > 100 µM | MDA-MB-435 > 100 µM | MDA-MB-231 > 100 µM | EKVX > 100 µM

S=c1[nH]c2c(Cl)c(Cl)c(Cl)c(Cl)c2[nH]1
inactive: U-251 31.7 µM | COLO 205 17.2 µM | SF-295 17.5 µM | OVCAR-5 25.8 µM | LOX IMVI 8.69 µM | SF-268 12.1 µM | TK-10 22 µM | SN12C 20.6 µM | A498 22.2 µM | MCF7 16.8 µM | CCRF-CEM 1.16 µM | M14 21.4 µM | RPMI-8226 3.52 µM | MDA-MB-435 17.5 µM | RXF 393 18.1 µM | MDA-MB-231 17.8 µM | EKVX 11.8 µM

COC(=O)[C@]1(C)CC[C@]2(C)CC[C@]3(C)C4[C@H]5Oc6c(cc7c(c6C)CCC6[C@@]7(C)CC[C@@]7(C)C8[C@](C)(CCC[C@@]8(C)C(=O)OC)CC[C@]67C)O[C@H]5c5c(cc6c(c5C)O[C@@]5(C)C7=CC=C8[C@@](C)(CC[C@@]9(C)[C@@H]%10C[C@](C)(C(=O)OC)CC[C@]%10(C)CC[C@]89C)C7=CC(=O)[C@@]5(O)O6)[C@]4(C)CC[C@@]3(C)C2C1 (stereo not given in full)
inactive: NCI-H226 > 12.5 µM | U-251 3.66 µM | COLO 205 6.35 µM | SF-295 > 12.5 µM | OVCAR-5 9.79 µM | SK-MEL-28 7.53 µM | LOX IMVI 2.27 µM | SF-268 4.5 µM | TK-10 2.6 µM | SN12C 2.35 µM | A498 > 12.5 µM | MCF7 3.11 µM | CCRF-CEM 1.19 µM | M14 4.01 µM | MDA-MB-435 3.56 µM | RXF 393 1.91 µM | MDA-MB-231 3.11 µM | EKVX 3.42 µM

Cc1cc2c(cc1Cl)SC(N/N=C(\N)c1ccc(Cl)cc1)=NS2(=O)=O
inactive: NCI-H226 > 100 µM | U-251 44.7 µM | COLO 205 42.3 µM | SF-295 71.3 µM | OVCAR-5 > 100 µM | SK-MEL-28 54.7 µM | LOX IMVI 43 µM | SF-268 45.6 µM | TK-10 > 100 µM | SN12C 78.3 µM | A498 32.9 µM | MCF7 14.1 µM | CCRF-CEM 43.3 µM | M14 81.5 µM | MDA-MB-435 61.8 µM | RXF 393 90.2 µM | MDA-MB-231 76.6 µM | EKVX 72.9 µM
